Patent US12188050B2, “Kidney organoids and methods of manufacturing” (MURDOCH CHILDRENS RESEARCH INSTITUTE, priority 2017, dated 2025)
“Also recorded” adds a separate entry of the source.

How the values were obtained:
Assay type in all cases: cell-based, human
[1] = tested on: kidney micro-organoids at day 7+18; test: Drug toxicity testing in micro kidney organoids (TUNEL staining, RNA analysis); conditions: 0, 2.5 and 5 μg/ml for 24 hours
Description: FIG. 8. Kidney micro-organoids provides a platform for drug toxicity screening.
To evaluate the suitability of using the suspension culture method described herein to test for drug toxicity of kidneys in vitro, drug toxicity studies were conducted. Organoids produced by the method at day 7+18 were collected and randomized into treatment groups in a 24 well low attachment plates in 250 μl of media. Organoids were stimulated with different concentrations of cytotoxic drug Adriamycin (0, 2.5 and 5 μg/ml) for 24 hours. After stimulation, media was removed and organoids were fixed with 2% PFA for immunofluorescence staining analysis for apoptosis by using TUNEL staining and some organoids were lysed for RNA analysis (FIG. 8A-8D).

[2] = tested on: intermediate mesoderm (IM) cells differentiated from hPSCs or hES; test: qPCR gene expression profiling of intermediate mesoderm at D7+0, FGF9 +/- 1 μM CHIR99021; conditions: low concentration CHIR (1 μM) days 5 to 7 with FGF9 and heparin; qPCR at D7+0
Description: FIG. 1. Generation of kidney micro-organoids in suspension culture. (A) Outline of the kidney micro-organoid differentiation protocol with images from a differentiation performed using CRL1502.C32 cells. (B) Bright field images showing uniform kidney micro-organoids on Day 7+18 (scale […]). (C, D1 and D2) Immunofluorescence and confocal images of micro-organoids showing formation of nephron segments independent of micro-organoid size and shape, including development of vascular structures (scale […]). (E) Bar graphs showing average fold change for intermediate mesoderm gene expression profiling by qPCR on Day 7+0 for FGF9+/−1 μM CHIR99021. The data represented as Mean, (F) Immunofluorescence for PAX2 for FGF9+/−1 μM CHIR99021 treatment (scale 50 μm) (D7+11). (G) Immunofluorescence and confocal images of nephron compartments within kidney micro-organoids; podocytes (NPHS1+ and MAFB+), proximal tubules (LTL+, CUBN+, LRP2+ and HNF4A+), distal tubules (ECAD), collecting duct (ECAD+ GATA3+) and endothelial cells (SOX17+ and PECAM1+) (scale 50 μm).
hPSCs or hES were differentiated into intermediate mesoderm by exposing cells to high concentration of CHIR (7 μM) for the first 4 days in APEL™ 2 or TeSR™-E6 media (Stem cell technologies) media with 3.5% protein free hybridoma media (PFHM) (Thermo Fischer), APEL™ (Stem cell technologies) or E6 media (Stem cell technologies). […]

[3] = tested on: kidney organoids from monolayers of hPSC; test: Effect of duration of initial 7 μM CHIR99021 on kidney organoid patterning (confocal microscopy); conditions: then low CHIR and FGF9+heparin to Day 7
Description: FIG. 2. […] (A) Confocal image of micro-kidney organoid tubules on Day 7+18 showing FITC albumin uptake (scale 5 μm). (B) Confocal images of micro-kidney organoids generated using 4 different cell lines, including hES (H9 GAP-Trap Luc2, hES3 SOX17mCherry) and iPS (CRL1502.C32 and CRL1502.3) on Day 7+18 with antibodies labelling different nephron segments (scale 50 μm). (C, D and E) hES3 SOX17mCherry derived micro-organoids generated after exposure to different days of initial 7 μM CHIR99021 for 3, 4, 5 and 6 days treatment showing bright field (C, scale 100 μm) and immunofluorescence confocal images showing SOX17+ vasculature (D) and MEIS1/2/3+ stroma (E) (scale 100 μm).
To optimise differentiation within the kidney organoid protocol, monolayers of hPSC were stimulated using a fixed concentration of CHIR99021 (7 μM) for varying durations (3, 4, 5 and 6 days) before continued culture to Day 7 in the presence of low CHIR and FGF9+heparin (FIGS. 2C, 2D and 2E). After 18 days, resulting kidney organoids were evaluated for kidney structure using confocal microscopy (FIGS. 2C, 2D and 2E). […] 4 days of initial 7 μM CHIR99021 induction was confirmed as optimal and used in further studies.

[4] = tested on: C32 derived swirler kidney organoids; test: Glomerular podocyte maturation in swirler organoids with atRA (immunofluorescence, qPCR)
Description: FIG. 7. All Trans-Retinoic Acid helps in the improvement of glomerular maturation in kidney micro-organoids. Immunofluorescence analysis of C32 swirler organoids generated by swirler suspension culture. (A) Organoids generated without supplementation at atRA. […] (C) qPCR analysis of organoids generated with and without atRA at different time points (D7+11 and D7+18).
To determine whether addition of all trans retinoic acid (atRA) would facilitate glomerular maturation of the organoids produced by the swirler culture method described in Examples 1-3, atRA was supplemented in the media after D7+0. All trans retinoic acid (2.5 μM) was added from D7+5 to D7+10 on C32 derived swirler organoids (FIG. 5).

Q: How did the “toxicity by expression of TUNEL apoptotic marker” value [1] turn out when `COc1cccc2c1C(=O)c1c(O)c3c(c(O)c1C2=O)C[C@@](O)(C(=O)CO)C[C@@H]3O[C@H]1C[C@H](N)[C@H](O)[C@H](C)O1` [Adriamycin] was run?
A: induces dose dependent toxicity

Q: What about the “expression of kidney specific genes in micro-organoids” value ([1]; RNA analysis) of the same molecule?
A: reduces the expression of kidney specific genes

Q: How did the “expression of PAX2, LHX1 and OSR1 (cap mesenchyme) compared to short CHIR exposure groups” value [2] turn out when `Cc1c[nH]c(-c2cnc(NCCNc3ccc(C#N)cn3)nc2-c2ccc(Cl)cc2Cl)n1` [CHIR99021] was run?
A: more than 2 folds

Q: And the “increase in expression of Wnt11 and GATA3 (ureteric epithelium) compared to short CHIR exposure groups” value [2]?
A: more than 2 fold

Q: What about the “kidney organoid structure after 18 days” value ([3]; 7 μM CHIR99021 for 4 or 5 days) of the same molecule?
A: generated kidney organoids containing patterning nephrons

Q: What about the “kidney organoid structure after 18 days” value ([3]; 7 μM CHIR99021 for 3 days) of the same molecule?
A: failed to generate a kidney morphology

Q: And the “kidney organoid structure after 18 days” value ([3]; 7 μM CHIR99021 for 6 days)?
A: generating larger kidney organoids with greater NPHS1 staining, contained an expanded MEIS1^+ stromal population apparently compromising epithelial structure

Q: How did the “podocyte phenotype by immunofluorescence compared to control group” value ([4]; 2.5 μM atRA from D7+5 to D7+10, analysis after D7+18) turn out when `CC1=C(/C=C/C(C)=C/C=C/C(C)=C/C(=O)O)C(C)(C)CCC1` [atRA, all trans retinoic acid] was run?
A: improved the podocyte phenotype; also recorded: improved glomerular podocyte maturation

Q: And the “mRNA expression of glomerular and proximal tubular markers (qPCR) compared to control” value ([4]; 2.5 μM atRA, D7+11 and D7+18 samples)?
A: increased expression of glomerular markers such as NPHS1 and proximal tubular markers like CUBN
